Earlier results in patent US6491657B2, “Ultrasound enhancement of transdermal transport” (Sontra Medical, Inc., priority 1996, dated 2002).

Settings: with ethanol as chemical enhancer

flux increase: 140 fold
SMILES: C[C@]12CC[C@@H]3c4ccc(O)cc4CC[C@H]3[C@@H]1CC[C@@H]2O [estradiol]
